# Read-outs that look alike come from different tables or passages of the source.
# Key:
# [1] = Solubility of biocides in solvents; type: physicochemical
# From the text: For example, Arch Wood Protection recently received US EPA registration on an end use wood preservative product having 5.0% tebuconazole, 5.0% propiconazole, 0.5% imidacloprid, and 89.5% inert ingredients (surfactants, etc). This is near the solubility limit of the carrier, that is, very little additional biocidal azole can be dissolved in that material. This is about 20 parts biocidal azoles per part of imidacloprid. Other commercially importants formulations include tebuconazole and imidacloprid in a ratio of about 50 parts to 1 part by weight, and 4 parts biocidal azoles (tebuconazole and propiconazole) per part by weight of permethin. In contrast, an exemplary formulation of the present invention comprises 15.0% tebuconazole (range 1-35%, preferably 5-20%), 15.0% propiconazole (range 1-40%, preferably 5-20%), 1.5% imidacloprid (range 0.2%-3%), 5.0% of an emulsifier blend (range 1-15%), 60.0% of a basic solvent such as N,N-dimethyldecanamide/octanamide (range 0.0-65%), and 3.5% N-methyl pyrrolidone (range 0.0-50%). The alkyl pyrrolidones can be included in component (A) compounds if an organic biocide is particularly difficult to dissolve.
# Other biocides which could be used in this invention include those in the azole family and other organic molecules in general (fungicides and insecticides) that are applicable to wood preservation. These could be combined in any number of mixtures and variations, including two-ways, four-ways, etc. or alone. A large number of surfactants that can be used as emulsifier components to make an EC. It really comes down to the formulator's preference. Similarly, there are many other solvents that could be used to dissolve these active ingredients and make an EC or microemulsion from an emulsion concentrate (MEC). When the compositions are diluted and undergo sufficient shear to form a microemulsion, the resultant microemulsion is stable at all reasonably useful levels of water dilution and remain thermodynamically stable and clear, opalescent, or only slightly cloudy. […]
# [2] = Particle size distribution on wet ball milling with 0.3 mm zirconia; type: physicochemical
# From the text: Milling tebuconazole with 0.3 mm zirconium oxide milling material. Tebuconazole is a preferred organic biocide for use in wood and also for selected foliar applications and for incorporation into biocidal materials. […] Exemplary other preferred biocides from the same class of material include cyproconazole, tetraconazole, difenoconazole, diniconazole, penconazole, imibenconazole, propiconazole, azaconazole, and epoxyconazole. […] A CB Mills Vertical Mill Model: L-1 mill was used in this experiment. […] The original d50 (the diameter at which 50% by weight of the particles have an effective diameter equal to or less than the d50) of the tebuconazole, prior to wet milling, was about 25 microns, with about a fourth of the tebuconazole in particles […] having a particle size less than 4 microns. The milling media was 0.3-0.5 mm Yttrium doped Zirconium Oxide. The density of the yttrium-doped zirconium oxide is ˜6.0 g/cm^3. […] Generally, for injecting into wood, we prefer less than 2% by weight of particles have a diameter greater than 1 micron, more preferably 0.7 microns. The residual large particles can be separated from the slurry by centrifugation and then be sent back to the mill for additional milling.
smiles,measurement,setting,value
O=[N+]([O-])NC1=NCCN1Cc1ccc(Cl)nc1 [Imidacloprid],solubility in most every EPA approved solvent,[1],sparingly soluble
CC(C)(C)C(O)(CCc1ccc(Cl)cc1)Cn1cncn1 (stereo not drawn) [Tebuconazole],"solubility in N,N-dimethylcapramide",[1],very soluble
same,Volume % With Diameter 1-10 μm,[2]; milling time 0 mins,4 Volume %
same,Volume % With Diameter 10-25 μm,[2]; milling time 0 mins,42.2 Volume %
same,Volume % With Diameter 25-50 μm,[2]; milling time 0 mins,27.2 Volume %
same,Volume % With Diameter >50 μm,[2]; milling time 0 mins,26.6 Volume %
same,Volume % With Diameter 0.2-1 μm,[2]; milling time 150 mins,20.7 Volume %
same,Volume % With Diameter 1-10 μm,[2]; milling time 150 mins,4.2 Volume %
same,Volume % With Diameter 10-25 μm,[2]; milling time 150 mins,3.6 Volume %
same,Volume % With Diameter 25-50 μm,[2]; milling time 150 mins,0 Volume %
same,Volume % With Diameter <0.2 μm,[2]; milling time 150 mins,71.5 Volume %
same,Volume % With Diameter >50 μm,[2]; milling time 150 mins,0 Volume %
same,d50,[2]; prior to wet milling,about 25 microns
same,weight % having a particle size less than 4 microns,[2]; prior to wet milling,about 4 % by weight
CCCC1COC(Cn2cncn2)(c2ccc(Cl)cc2Cl)O1 (stereo not drawn) [propiconazole],"solubility in N,N-dimethylcapramide","[1]; solvent N,N-DMC",very soluble
